# Results from patent publication US11173124B2, “Oral delivery of GLP-1 peptide analogs” (MEDIMMUNE LIMITED, priority 2017, dated 2021).
# Where two headings read alike, the source gives them in different places. Starred links: 1 amine or outer side, 2 acyl side, 3 side chain; linkers in the order of their positions; H or OH if unused. Non-standard residues stand in square brackets, D forms with d. Residues, ends and D or L forms follow the SMILES beside them. Groups on a side chain read outwards from the residue. *: point of attachment. γGlu = O=C(O)[C@H](CCC(=O)[*:2])N[*:1]; αMeF = C[C@](N)(Cc1ccccc1)C(=O)O; αMeK = C[C@](N)(CCCCN)C(=O)O; Lauroyl = CCCCCCCCCCCC(=O)*; αMeS = C[C@](N)(CO)C(=O)O; AEEA = NCCOCCOCC(=O)O; Aib = CC(C)(N)C(=O)O
# What was measured:
# [1] = Second rat intraduodenal study, permeation enhancers from Caco-2 (Example 5); format: in vivo; conditions: for AUC / Cmax / Tmax / half-life: in vivo, pH 8, rat
# Description: Solution formulations comprising GLP-1 peptide analogs were injected into rats in the duodenum segment of the small intestine. The first ID study involved the use of sodium caprate as the permeation enhancer and the SEQ ID NO:3 GLP-1 peptide analog. Absolute bioavailability (% F) is a percentage-expressed measure of systemic drug exposure after oral, or in the current example intraduodenal, administration to the systemic exposure generated with intravenous (IV) administration of drug solution. Absolute bioavailability, (% F), is calculated as a percentage of systemic, or blood, drug concentration area under curve (AUC) of the AUC of IV administration adjusted to the amounts of drug given via these routes of administration.
# Following the initial rat ID study, a second rat ID administration study was performed to evaluate the influence of permeation enhancers identified from the Caco-2 model study. That is, tetradecyl maltoside, sodium chenodeoxycholate, and combination of sodium chenodeoxycholate and propyl gallate were tested for their effect on oral bioavailability of the SEQ ID NO:3 peptide (Table 6).
# GLP-1 receptor = GLP-1 receptor (Homo sapiens, UniProt P43220); experiment: cAMP assay, primary assay as described in WO 2016/198544; format: cell-based; conditions: in vitro potency at the GLP-1 receptor
# Description: The biological activity of a GLP-1 peptide analog can be evaluated, for example, by assessing the ability of the peptide to activate a receptor (e.g., a GLP-1 receptor). Peptide activation of such receptors results in downstream accumulation of cAMP second messenger which can be measured in a functional activity assay.
# [2] = ID, 1 mg/kg peptide + 25 mg/kg Na CDC + 12.5 mg/kg PG, PBS pH 8.0
# [3] = ID, 1 mg/kg peptide + 25 mg/kg Na CDC, PBS pH 8.0
# [4] = ID, 1 mg/kg peptide + 25 mg/kg Tetradecylmaltoside, PBS pH 8.0
# [5] = ID, 1 mg/kg peptide + 50 mg/kg Na CDC, PBS pH 8.0
# [6] = ID, 1 mg/kg peptide + 50 mg/kg Tetradecylmaltoside, PBS pH 8.0
# [7] = ID, 10 mg/kg peptide + 50 mg/kg Na CDC + 25 mg/kg PG, PBS pH 8.0
# [8] = ID, 10 mg/kg peptide + 50 mg/kg Na CDC, PBS pH 8.0
# [9] = ID, 10 mg/kg peptide + 50 mg/kg Tetradecylmaltoside, PBS pH 8.0
# [10] = 1 mg/kg, ID, 1 mg/kg peptide, no permeation enhancer, PBS pH 8.0
# [11] = iv, 0.01 mg/kg, 0.01 mg/kg peptide in PBS pH 8.0
# [12] = ID, 1 mg/kg peptide + 50 mg/kg Na CDC + 25 mg/kg PG, PBS pH 8.0
# GLP-1 receptor, sequence (P43220 24-463): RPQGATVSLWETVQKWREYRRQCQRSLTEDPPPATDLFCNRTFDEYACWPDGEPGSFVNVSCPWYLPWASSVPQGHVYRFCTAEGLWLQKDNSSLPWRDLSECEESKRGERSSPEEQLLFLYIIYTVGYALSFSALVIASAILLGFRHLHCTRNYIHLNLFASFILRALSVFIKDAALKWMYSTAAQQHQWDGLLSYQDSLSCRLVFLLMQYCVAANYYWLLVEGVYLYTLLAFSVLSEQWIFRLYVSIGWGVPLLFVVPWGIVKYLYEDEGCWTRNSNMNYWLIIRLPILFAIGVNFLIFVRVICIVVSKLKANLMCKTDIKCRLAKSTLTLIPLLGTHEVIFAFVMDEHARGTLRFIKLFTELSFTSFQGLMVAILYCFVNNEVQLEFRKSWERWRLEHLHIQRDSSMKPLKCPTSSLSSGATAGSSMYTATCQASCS
smiles,measurement,setting,value
"CC[C@H](C)[C@H](NC(=O)C(C)(Cc1ccccc1)NC(=O)[C@H](CCC(=O)O)NC(=O)[C@H](CCCCNC(=O)COCCOCCNC(=O)COCCOCCNC(=O)CC[C@H](NC(=O)CCCCCCCCCCCCCCCCC(=O)O)C(=O)O)NC(=O)[C@H](C)NC(=O)[C@H](C)NC(=O)[C@H](CCC(=O)O)NC(=O)CNC(=O)[C@H](CCC(=O)O)NC(=O)[C@H](CC(C)C)NC(=O)C(C)(Cc1ccccc1)NC(=O)[C@H](CO)NC(=O)C(C)(CO)NC(=O)[C@@H](NC(=O)[C@H](CC(=O)O)NC(=O)[C@H](CO)NC(=O)[C@@H](NC(=O)C(C)(Cc1ccccc1)NC(=O)[C@H](CO)NC(=O)CNC(=O)[C@H](CCC(=O)O)NC(=O)C(C)(C)NC(=O)[C@@H](N)Cc1c[nH]cn1)[C@@H](C)O)C(C)C)C(=O)N[C@@H](C)C(=O)NC(C)(Cc1ccccc1)C(=O)N[C@H](C(=O)N[C@H](C(=O)NC(C)(CCCCN)C(=O)NCC(=O)NCC(N)=O)C(C)C)C(C)C (stereo partly drawn) [SEQ ID NO: 3, Free-H-[AIB]-EGS-[αMePhe]-TSDV-[αMeSer]-S-[αMePhe]-LEGEAAK[(PEG2)2-γE-Stearate]-E-[αMePhe]-IA-[αMePhe]-VV-[αMeLys]-GG-amide]",F,[1]; [2],0.28%
same,F,[1]; [3],0.12%
same,F,[1]; [4],0.08%
same,F,[1]; [5],0.21%
same,F,[1]; [6],0.06%
same,increase of oral bioavailability,"[1]; ID, 1 mg/kg peptide, 50 mg/kg sodium chenodeoxycholate and 25 mg/kg propyl gallate (to 0.39%)",~20 fold
same,F,[1]; [7],0.42%
same,F,[1]; [8],0.28%
same,F,[1]; [9],0.07%
same,F,"[1]; Intravenous, 0.01 mg/kg peptide in PBS pH 8.0",100%
same,AUC,[1]; [10],19.4 ng·h/mL
same,Cmax,[1]; [10],3.16 ng/mL
same,Tmax,[1]; [10],8 h
same,AUC,[1]; [11],1030 ng·h/mL
same,Cmax,[1]; [11],96.2 ng/mL
same,half-life,"[1]; iv, 0.01 mg/kg, Intravenous, 0.01 mg/kg peptide in PBS pH 8.0, read-out: T ½ (converted)",2.9 h
same,AUC,[1]; [2],293 ng·h/mL
same,Cmax,[1]; [2],39 ng/mL
same,Tmax,[1]; [2],0.3 h
same,half-life,"[1]; ID, 1 mg/kg peptide + 25 mg/kg Na CDC + 12.5 mg/kg PG, PBS pH 8.0, read-out: T ½ (converted)",9.1 h
same,AUC,[1]; [3],121 ng·h/mL
same,Cmax,[1]; [3],21.3 ng/mL
same,Tmax,[1]; [3],0.3 h
same,half-life,"[1]; ID, 1 mg/kg peptide + 25 mg/kg Na CDC, PBS pH 8.0, read-out: T ½ (converted)",7.16 h
same,AUC,[1]; [4],87.3 ng·h/mL
same,Cmax,[1]; [4],5.4 ng/mL
same,Tmax,[1]; [4],1 h
same,half-life,"[1]; ID, 1 mg/kg peptide + 25 mg/kg Tetradecylmaltoside, PBS pH 8.0, read-out: T ½ (converted)",17.4 h
same,AUC,[1]; [12],402 ng·h/mL
same,Cmax,[1]; [12],58.1 ng/mL
same,Tmax,[1]; [12],0.5 h
same,half-life,"[1]; ID, 1 mg/kg peptide + 50 mg/kg Na CDC + 25 mg/kg PG, PBS pH 8.0, read-out: T ½ (converted)",9.9 h
same,AUC,[1]; [5],212 ng·h/mL
same,Cmax,[1]; [5],30.9 ng/mL
same,Tmax,[1]; [5],0.5 h
same,half-life,"[1]; ID, 1 mg/kg peptide + 50 mg/kg Na CDC, PBS pH 8.0, read-out: T ½ (converted)",9.3 h
same,AUC,[1]; [6],63.2 ng·h/mL
same,Cmax,[1]; [6],5.8 ng/mL
same,Tmax,[1]; [6],1 h
same,half-life,"[1]; ID, 1 mg/kg peptide + 50 mg/kg Tetradecylmaltoside, PBS pH 8.0, read-out: T ½ (converted)",10.3 h
same,AUC,[1]; [7],4330 ng·h/mL
same,Cmax,[1]; [7],670 ng/mL
same,Tmax,[1]; [7],0.5 h
same,half-life,"[1]; ID, 10 mg/kg peptide + 50 mg/kg Na CDC + 25 mg/kg PG, PBS pH 8.0, read-out: T ½ (converted)",11 h
same,AUC,[1]; [8],2920 ng·h/mL
same,Cmax,[1]; [8],380 ng/mL
same,Tmax,[1]; [8],0.5 h
same,half-life,"[1]; ID, 10 mg/kg peptide + 50 mg/kg Na CDC, PBS pH 8.0, read-out: T ½ (converted)",9.4 h
same,AUC,[1]; [9],705 ng·h/mL
same,Cmax,[1]; [9],51.5 ng/mL
same,Tmax,[1]; [9],0.5 h
same,half-life,"[1]; ID, 10 mg/kg peptide + 50 mg/kg Tetradecylmaltoside, PBS pH 8.0, read-out: T ½ (converted)",8.19 h
"CCCCCCCCCCCC(=O)N[C@@H](CCC(=O)NCCOCCOCC(=O)NCCOCCOCC(=O)NCCCC[C@H](NC(=O)[C@H](C)NC(=O)[C@@H](NC(=O)[C@](C)(Cc1ccccc1)NC(=O)[C@H](CCC(=O)O)NC(=O)[C@](C)(CCCCN)NC(=O)[C@H](C)NC(=O)[C@H](C)NC(=O)[C@H](CCC(=O)O)NC(=O)CNC(=O)[C@H](CCC(=O)O)NC(=O)[C@H](CC(C)C)NC(=O)[C@H](CCCCNC(=O)COCCOCCNC(=O)COCCOCCNC(=O)CC[C@H](NC(=O)CCCCCCCCCCC)C(=O)O)NC(=O)[C@H](CO)NC(=O)[C@](C)(CO)NC(=O)[C@@H](NC(=O)[C@H](CC(=O)O)NC(=O)[C@H](CO)NC(=O)[C@@H](NC(=O)[C@](C)(Cc1ccccc1)NC(=O)[C@H](CO)NC(=O)CNC(=O)[C@H](CCC(=O)O)NC(=O)C(C)(C)NC(=O)[C@@H](N)Cc1c[nH]cn1)[C@@H](C)O)C(C)C)[C@@H](C)CC)C(=O)N[C@H](C(=O)N[C@H](C(=O)N[C@@H](CCC(=O)O)C(=O)NCC(=O)NCC(N)=O)C(C)C)C(C)C)C(=O)O [MEDI7219, Free-H-[AIB]-EGS-[αMePhe]-TSDV-[αMeSer]-SK[(PEG2)2-γE-Lauroyl]-LEGEAA-[αMeLys]-E-[αMePhe]-IAK[(PEG2)2-γE-Lauroyl]-VVEGG-amide] (H-H[Aib]EGS[αMeF]TSDV[αMeS]SK([AEEA-AEEA-γGlu-Lauroyl])LEGEAA[αMeK]E[αMeF]IAK([AEEA-AEEA-γGlu-Lauroyl])VVEGG-NH2)",EC50,GLP-1 receptor,~3.9 pM
